Data: ChEMBL document CHEMBL1201862, “PubChem BioAssay data set” (2004)
Activity calls are given as the source filed them.

Key:
[1] = luciferase reporter signal suppression in cells – H4 neuroglioma cells, luminescence, dose response (AID 1990); type: functional, cell-based
[2] = test system: Streptococcus sp. 'group A'; assay: Streptococcus pyogenes SK(-)GAS viability under kanamycin – luminescence, BacTiterGlo, confirmation, counter-screen for streptokinase expression inhibitor project, dose response (AID 1900); type: functional, organism-based
[3] = Luminescence Cell-Based Dose Response HTS to Identify Inhibitors of 5'UTR Stem-Loop Driven Prion Protein mRNA Translation in H4 Neuroglioblastoma Cells. [Related pubchem assays: 1827 (Project Summary), 1813 (Primary HTS)]; type: functional
[4] = alpha-synuclein stem-loop luciferase translation blockers – H4 neuroglioma cells, luminescence, confirmation (AID 1988); type: functional, cell-based
Streptokinase A = molecular target: T1, Streptokinase A (Streptococcus pyogenes serotype M1, UniProt P10520); assay: viability-normalized secreted streptokinase activity reduction – plasminogen activation absorbance, OD405, dose response (AID 1914); type: functional, Streptococcus pyogenes M1 GAS;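 also: secreted streptokinase activity via plasminogen activation per viability signal from cell pellet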
T1 sequence (P10520 whole entry): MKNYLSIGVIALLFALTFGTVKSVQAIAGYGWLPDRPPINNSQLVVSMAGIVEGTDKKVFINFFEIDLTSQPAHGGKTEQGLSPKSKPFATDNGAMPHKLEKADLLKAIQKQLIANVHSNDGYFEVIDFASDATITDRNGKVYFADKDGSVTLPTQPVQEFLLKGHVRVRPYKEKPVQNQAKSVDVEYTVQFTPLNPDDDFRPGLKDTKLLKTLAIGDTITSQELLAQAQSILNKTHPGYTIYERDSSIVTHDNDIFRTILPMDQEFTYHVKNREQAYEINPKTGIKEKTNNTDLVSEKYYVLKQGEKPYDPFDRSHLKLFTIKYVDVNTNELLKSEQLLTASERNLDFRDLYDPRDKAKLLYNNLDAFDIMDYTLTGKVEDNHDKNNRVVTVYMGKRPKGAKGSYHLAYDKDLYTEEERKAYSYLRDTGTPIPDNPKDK

[5] = Trypanosoma cruzi growth suppression in host cells – NIH3T3 host cells, beta-gal luminescence, confirmation (AID 2044); type: functional, cell-based;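 also: intracellular parasites grown in NIH/3T3 mouse fibroblasts as host cells; luminescent beta-galactosidase reporter signal from transgenic T. cruzi replicating inside host cells; inhibitors lower the luminescence signal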
[6] = viability of PTEN-deleted HCT116 cells – cell-based, HCT116 PTEN knockout, dose response (AID 1047); type: functional;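 also: HCT116 colon tumor cells with PTEN knocked out; cells exposed to compound for 60 hours before readout; potency for loss of cell viability measured by luminescence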
[7] = NIH3T3 cell viability loss – ATP luminescence, mouse fibroblasts, counter-screen, dose response (AID 2010); type: functional, cell-based;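 also: cells exposed to compound for about 90 hours before reading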
[8] = viability of HCT116 lacking mutant beta-catenin – cell-based, human colon tumor, dose response (AID 1045); type: functional;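 also: HCT116 colon tumor cells with beta catenin knocked out; cells exposed to compound for 60 hours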
Streptococcus = assay: GAS UMAA2166 growth inhibition – luminescence, BacTiterGlo, counter-screen for streptokinase expression inhibitor project, dose response (AID 1915); type: functional, organism-based;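 also: potency for reduction of bacterial viability or growth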
HEK293 [9] = assay: EBV LMP1 TES2 canonical NF-kB signalling blockers – cell-based, HEK293, luciferase, cherry-pick, dose response (AID 588343); type: functional; conditions: Homo sapiens
Insulin-degrading enzyme [10] = molecular target: T2, Insulin-degrading enzyme (Homo sapiens, UniProt P14735); assay: recombinant IDE activation, cell-free – biochemical, fluorescence polarization, counter-screen for IDE activator project, dose response (AID 588681)
T2 sequence (P14735 whole entry): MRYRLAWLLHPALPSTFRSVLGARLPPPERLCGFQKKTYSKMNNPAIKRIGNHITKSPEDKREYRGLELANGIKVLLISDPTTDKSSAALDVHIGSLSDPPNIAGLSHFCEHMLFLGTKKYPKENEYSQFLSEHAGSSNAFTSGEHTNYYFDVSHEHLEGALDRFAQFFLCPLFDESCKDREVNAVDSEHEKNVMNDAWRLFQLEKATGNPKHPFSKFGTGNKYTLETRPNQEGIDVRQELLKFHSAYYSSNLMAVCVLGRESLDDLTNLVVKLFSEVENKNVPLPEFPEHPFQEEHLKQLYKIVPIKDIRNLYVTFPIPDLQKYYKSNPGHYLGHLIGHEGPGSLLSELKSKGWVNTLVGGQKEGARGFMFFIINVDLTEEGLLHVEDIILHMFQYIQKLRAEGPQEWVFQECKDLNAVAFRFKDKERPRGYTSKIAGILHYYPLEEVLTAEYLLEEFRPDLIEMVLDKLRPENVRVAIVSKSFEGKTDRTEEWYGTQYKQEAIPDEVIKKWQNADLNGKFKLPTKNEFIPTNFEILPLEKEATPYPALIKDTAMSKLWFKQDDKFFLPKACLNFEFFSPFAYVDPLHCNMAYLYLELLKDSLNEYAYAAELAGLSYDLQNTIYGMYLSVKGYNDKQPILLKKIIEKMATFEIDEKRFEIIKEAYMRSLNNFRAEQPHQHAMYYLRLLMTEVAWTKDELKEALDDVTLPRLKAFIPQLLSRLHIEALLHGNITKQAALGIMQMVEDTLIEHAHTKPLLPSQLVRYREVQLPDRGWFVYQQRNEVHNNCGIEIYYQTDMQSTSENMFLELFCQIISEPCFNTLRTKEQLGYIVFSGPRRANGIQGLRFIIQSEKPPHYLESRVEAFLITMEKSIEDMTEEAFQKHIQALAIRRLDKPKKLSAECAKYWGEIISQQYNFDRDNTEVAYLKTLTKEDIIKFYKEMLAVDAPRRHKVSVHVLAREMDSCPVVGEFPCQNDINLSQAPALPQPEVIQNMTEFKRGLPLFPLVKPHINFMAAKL

Insulin-degrading enzyme [11] = molecular target: T2, Insulin-degrading enzyme; assay: cellular IDE activation of Abeta substrate cleavage – fluorescence polarization, HEK cells, dose response (AID 588439); type: functional, cell-based
INS1 = assay: INS-1E survival protection against cytokine death – cell-based, luminescence, retest, dose response (AID 449756); type: functional; conditions: Rattus norvegicus;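 also: cell death triggered by IL-1 beta plus TNF-alpha plus IFN-gamma mixture; protective hits raise ATP signal compared with cytokine alone wells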
HEK293 [12] = assay: membrane integrity loss in HEK cells – cell-based, fluorescence, cytotoxicity control for IDE activator project, dose response (AID 588440); type: functional; conditions: Homo sapiens;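 also: cytotoxicity by LDH release measuring loss of membrane integrity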
HEK293 [13] = assay: optical interference in Abeta FP readout, dose response, artefact control for IDE activator project, biochemical, fluorescence polarization (AID 588442); type: functional, cell-based; conditions: Homo sapiens
[14] = molecular target: Beta-2 adrenergic receptor (Homo sapiens, UniProt P07550); assay: ADRB2 activation measured by internalization – cell-based, FAP fluorogen, flow cytometry, cherry pick 1, dose response (AID 588763); type: functional
Chain of Beta-2 adrenergic receptor (P07550 whole entry): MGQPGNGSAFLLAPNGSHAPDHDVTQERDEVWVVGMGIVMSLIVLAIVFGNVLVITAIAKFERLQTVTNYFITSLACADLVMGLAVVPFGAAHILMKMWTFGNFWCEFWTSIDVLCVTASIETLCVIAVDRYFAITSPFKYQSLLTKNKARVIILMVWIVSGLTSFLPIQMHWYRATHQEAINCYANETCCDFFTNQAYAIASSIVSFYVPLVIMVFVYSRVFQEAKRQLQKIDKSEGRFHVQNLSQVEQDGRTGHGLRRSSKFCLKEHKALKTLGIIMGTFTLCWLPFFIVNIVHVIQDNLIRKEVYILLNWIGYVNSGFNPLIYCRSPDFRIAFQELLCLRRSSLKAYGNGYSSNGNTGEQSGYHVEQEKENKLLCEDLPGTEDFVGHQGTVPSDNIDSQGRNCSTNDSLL

[15] = reduction of Shn3 3'UTR-driven luciferase in osteoblasts – cell-based, Clone20 osteoblasts, firefly luciferase, cherry-picked, dose response (AID 624132); type: functional;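 also: firefly luciferase luminescence from reporter carrying the Shn3 3'UTR in osteoblasts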
[16] = loss of viability in HepG2 cells – cell-based, CellTiter-Glo, cherry-picked, cytotoxicity control for Shn3 inhibitor project, dose response (AID 624134); type: functional
[17] = non-specific 3'UTR reporter inhibition in Clone20-Shn3RL – cell-based, Renilla luciferase, cherry-picked, counter-screen for Shn3 inhibitor project, dose response (AID 624133); type: functional
HEK293 [18] = assay: inhibition of NOD1-driven NF-kB reporter – cell-based, luminescence, uHTS, primary screen (AID 1578); type: functional; conditions: Homo sapiens
HEK293 [19] = assay: cells; type: functional, cell-based; conditions: Homo sapiens
HEK293 [20] = assay: cells; type: functional, cell-based; conditions: Homo sapiens; remark: listed apart in the source
[21] = molecular target: Nucleotide-binding oligomerization domain-containing protein 2 (Homo sapiens, UniProt Q9HC29); assay: inhibition of NOD2-driven NF-kB reporter – cell-based, luminescence, uHTS, HEK293 (AID 1566); type: functional
Chain of Nucleotide-binding oligomerization domain-containing protein 2 (Q9HC29 whole entry, the tested form may be a part): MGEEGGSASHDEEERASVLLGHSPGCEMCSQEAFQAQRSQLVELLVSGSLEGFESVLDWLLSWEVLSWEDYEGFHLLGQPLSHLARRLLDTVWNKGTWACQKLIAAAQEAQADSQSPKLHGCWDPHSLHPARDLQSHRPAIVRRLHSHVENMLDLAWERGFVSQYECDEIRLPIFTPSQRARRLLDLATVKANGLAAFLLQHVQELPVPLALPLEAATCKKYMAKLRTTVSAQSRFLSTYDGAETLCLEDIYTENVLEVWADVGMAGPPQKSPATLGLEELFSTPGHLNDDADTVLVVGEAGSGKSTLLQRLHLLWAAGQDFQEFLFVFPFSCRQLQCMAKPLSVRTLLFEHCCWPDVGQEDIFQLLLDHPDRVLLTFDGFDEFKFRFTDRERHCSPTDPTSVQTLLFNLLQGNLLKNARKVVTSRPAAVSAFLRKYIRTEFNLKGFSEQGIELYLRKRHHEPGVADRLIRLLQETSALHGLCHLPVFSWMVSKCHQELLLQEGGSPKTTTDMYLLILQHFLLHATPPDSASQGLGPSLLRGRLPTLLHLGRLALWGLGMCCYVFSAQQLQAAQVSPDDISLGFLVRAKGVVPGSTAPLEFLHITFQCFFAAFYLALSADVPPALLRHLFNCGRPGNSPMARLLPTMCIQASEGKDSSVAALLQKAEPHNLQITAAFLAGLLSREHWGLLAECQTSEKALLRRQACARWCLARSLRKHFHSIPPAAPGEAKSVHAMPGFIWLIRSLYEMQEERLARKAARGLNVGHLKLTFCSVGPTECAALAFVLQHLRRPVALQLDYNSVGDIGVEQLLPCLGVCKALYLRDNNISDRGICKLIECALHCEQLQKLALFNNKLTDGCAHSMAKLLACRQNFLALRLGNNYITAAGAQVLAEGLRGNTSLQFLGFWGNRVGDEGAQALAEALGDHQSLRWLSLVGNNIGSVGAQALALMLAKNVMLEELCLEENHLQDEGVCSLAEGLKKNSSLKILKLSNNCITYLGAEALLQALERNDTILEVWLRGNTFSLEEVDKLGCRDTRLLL

HEK293 [22] = assay: NOD2 signaling inhibitors in MDP-stimulated cells, cell-based, uHTS, luminescence (AID 2001); type: functional; conditions: Homo sapiens
HEK293 [23] = assay: cells; type: functional, cell-based; conditions: Homo sapiens; remark: listed apart in the source
Protein Wnt-3a = Protein Wnt-3a (Mus musculus, UniProt P27467); assay: antagonism of Wnt3a pathway luciferase reporter – Wnt-LIGHT cells, luminescence, selectivity assay for Gli-SUFU antagonist project, dose response (AID 651570); type: functional; conditions: read-out: IC50_Mean;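 also: Wnt-LIGHT reporter cells stimulated with conditioned medium from Wnt3a-producing cells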
Chain of Protein Wnt-3a (P27467 whole entry): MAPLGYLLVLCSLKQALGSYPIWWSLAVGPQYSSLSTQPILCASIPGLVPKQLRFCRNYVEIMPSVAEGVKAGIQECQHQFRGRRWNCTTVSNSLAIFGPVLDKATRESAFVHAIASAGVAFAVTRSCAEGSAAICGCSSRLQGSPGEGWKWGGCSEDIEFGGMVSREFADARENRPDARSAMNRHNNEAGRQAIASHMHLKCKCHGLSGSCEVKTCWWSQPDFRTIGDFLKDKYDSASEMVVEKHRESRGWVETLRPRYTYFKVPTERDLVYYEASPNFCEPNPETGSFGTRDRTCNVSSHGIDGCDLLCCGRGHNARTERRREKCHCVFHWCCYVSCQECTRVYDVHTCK

[24] = molecular target: Adenosylmethionine-8-amino-7-oxononanoate aminotransferase (Mycobacterium tuberculosis, UniProt P9WQ81); assay: Mycobacterium tuberculosis BioA enzyme inhibitor Measured in Biochemical System Using Plate Reader - 2163-02_Inhibitor_Dose_CherryPick_Activity.; type: functional, Mycobacterium tuberculosis UT205
Chain of Adenosylmethionine-8-amino-7-oxononanoate aminotransferase (P9WQ81 whole entry): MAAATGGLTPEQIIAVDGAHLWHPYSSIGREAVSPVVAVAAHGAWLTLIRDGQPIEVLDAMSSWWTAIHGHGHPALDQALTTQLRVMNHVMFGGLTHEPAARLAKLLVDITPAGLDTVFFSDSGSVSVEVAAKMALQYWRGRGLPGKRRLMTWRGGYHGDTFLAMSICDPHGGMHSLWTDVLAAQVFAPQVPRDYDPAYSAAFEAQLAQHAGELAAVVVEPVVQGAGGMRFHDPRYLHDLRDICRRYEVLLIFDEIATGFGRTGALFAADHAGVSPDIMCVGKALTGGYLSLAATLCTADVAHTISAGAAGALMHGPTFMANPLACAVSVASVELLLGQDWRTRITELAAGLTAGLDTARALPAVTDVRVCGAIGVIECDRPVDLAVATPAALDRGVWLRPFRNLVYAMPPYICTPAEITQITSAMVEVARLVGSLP

Beta-lactamase [25] = molecular target: Beta-lactamase (Salmonella choleraesuis (strain SC-B67), UniProt Q5J463); assay: Epi-absorbance-based counterscreen for selective VIM-2 inhibitors: dose response biochemical high throughput screening assay to identify inhibitors of TEM-1 serine-beta-lactamase.
Chain of Beta-lactamase (Salmonella choleraesuis (strain SC-B67), UniProt Q5J463) (Q5J463 whole entry): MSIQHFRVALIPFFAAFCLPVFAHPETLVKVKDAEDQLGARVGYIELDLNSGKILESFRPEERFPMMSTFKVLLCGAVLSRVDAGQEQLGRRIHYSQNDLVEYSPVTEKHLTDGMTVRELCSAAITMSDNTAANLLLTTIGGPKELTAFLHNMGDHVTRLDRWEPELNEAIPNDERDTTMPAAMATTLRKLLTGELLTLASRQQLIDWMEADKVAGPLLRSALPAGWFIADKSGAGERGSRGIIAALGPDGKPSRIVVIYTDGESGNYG

Beta-lactamase [26] = molecular target: T3, Beta-lactamase (Pseudomonas aeruginosa, UniProt Q79MP6); assay: inhibition of IMP-1 beta-lactamase activity – biochemical, epi-absorbance, selectivity assay for VIM-2 inhibitor project, dose response (AID 1920)
T3 sequence (Q79MP6 whole entry): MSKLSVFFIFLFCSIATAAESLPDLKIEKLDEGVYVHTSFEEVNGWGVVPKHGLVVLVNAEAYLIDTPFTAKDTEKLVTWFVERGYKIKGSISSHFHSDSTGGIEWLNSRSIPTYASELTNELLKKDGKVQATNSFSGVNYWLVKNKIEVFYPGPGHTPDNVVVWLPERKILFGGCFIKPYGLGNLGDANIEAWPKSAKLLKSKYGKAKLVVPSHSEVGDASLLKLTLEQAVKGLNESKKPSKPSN

Beta-lactamase [27] = molecular target: T3, Beta-lactamase; assay: […] counterscreen for selective VIM-2 inhibitors: dose response biochemical high throughput screening assay to identify inhibitors of IMP-1 metallo-beta-lactamase.

SMILES: COc1ccc(Cn2c(SCc3cc(C)ccc3C)nc3cc(OC)c(OC)cc3c2=N)cc1
- EC50 [1]: 24.1 µM (active)
- EC50 [2]: 5.16 µM (active)
- EC50 [3]: 30.7 µM (active)
- EC50 [4]: 10.8 µM (active)
- EC50 (Streptokinase A): 6.67 µM (active)
- EC50 [5]: 1.19 µM (active)
- EC50 [6]: 2.47 µM (active)
- EC50 [7]: 9.83 µM (active)
- EC50 [8]: 1.88 µM (active)
- EC50 (Streptococcus): 8.37 µM (active)
- AC50 (HEK293 [9]): 7.9 µM (active)
- EC50 (Insulin-degrading enzyme [10]): > 54.7 µM (inactive)
- EC50 (Insulin-degrading enzyme [11]): 6.95 µM (active)
- AC50 (INS1): 3.48 µM (active)
- IC50 (HEK293 [12]): 10.7 µM (inactive)
- EC50 (HEK293 [13]): > 56 µM (inactive)
- EC50 [14]: 83.4 µM (inactive)
- AC50 [15]: 7.91 µM (active)
- AC50 [16]: 11.2 µM (active)
- AC50 [17]: 9.31 µM (active)

SMILES: C=CCn1c(O)c(N=NC(=S)Nc2cccc(C)c2)c2ccccc21
- EC50 (HEK293 [18]): 1.09 µM (active)
- IC50 (HEK293 [19]): 2.97 µM (active)
- IC50 (HEK293 [20]): > 20 µM (inactive)
- EC50 [21]: 16.3 µM (active)
- IC50 (HEK293 [22]): 1.18 µM (active)
- EC50 [5]: 0.558 µM (active)
- IC50 (HEK293 [23]): > 20 µM (inactive)
- EC50 [7]: 3.44 µM (active)
- AC50 (HEK293 [9]): 1.46 µM (active)
- IC50 (Protein Wnt-3a): 29.2 µM (inactive)

SMILES: O=C(Nc1cccnc1)c1ccc(N2CCOCC2)c([N+](=O)[O-])c1
- AC50 [24]: 6.8 µM (active)

SMILES: Cc1ccc(-n2c(-c3nn(C)c(C)c3Cl)n[nH]c2=S)cc1
- IC50 (Beta-lactamase [25]): > 59.6 µM (inactive)
- IC50 (Beta-lactamase [26]): > 59.6 µM (inactive)
- IC50 (Beta-lactamase [27]): > 59.6 µM (inactive)

SMILES: Cc1nn(CCC(=O)O)c2nc(-c3cccnc3)cc(C(F)(F)F)c12
- AC50 [24]: 10.2 µM (active)
